One series concerns the target T1, Aβ monomers (Homo sapiens, UniProt P05067).
T1 construct: Aβ monomers were covalently coupled to one flow cell of CM7 sensor chips
Description: SPR binding assay (BIACORE X100). The conditions noted are these: immobilized Aβ monomers, 25° C., steady-state; mean ± SD; read-out: SPR binding IC50 [nM] +/− SD (repeats). The procedure:
Surface Plasmon Resonance (SPR) studies were performed using a BIACORE X100 biosensor instrument (GE Lifesciences, Uppsala, Sweden), equipped with two flow cells on a sensor chip. Aβ monomers were covalently coupled to one flow cell of CM7 sensor chips (GE Lifesciences, Uppsala, Sweden) via primary amines using the Amine Coupling Kit (GE Lifesciences, Uppsala, Sweden). As a control, ethanolamine was immobilized on the reference channel. […] One RU represents about 1 pg/mm^2 of the analytes on the surface matrix of the sensor chip. […] The stock solutions were diluted 1:1000 in HBS-EP buffer which contains 0.01M HEPES, pH7.4, 0.15M NaCl, 3 mM EDTA, and 0.005% of surfactant P20. HBS-EP+0.1% (v/v) DMSO was used as assay running buffer. The test solutions were injected over the sensor chip in concentrations ranging from 0.1 nM to 300 nM at a flow rate of 10 μl/min for 180 seconds at 25° C. Concentrations were tested in duplicate. The RUs elicited by the compound injected into the ethanolamine control flow cell was set as reference response and subtracted from the RUs elicited by the same compound injected to the Aβ saturated flow cell. The relationships between each RU obtained at the steady state of binding (plateau of the binding curve) and each concentration of the compound were plotted. After the analyte injection was stopped, HBS-EP buffer was flowed over the chip for 180 s to allow the bound analyte to dissociate from the immobilized Aβ and the dissociation curves were obtained. After the dissociation phase, regeneration solution (1M NaCl, 50 mM NaOH) was injected and flowed over the chip for 30 seconds to remove the residual bound analytes from the immobilized Aβ. BIACORE X100 control software Ver 1.1 was used to record the binding curves and BIACORE X100 evaluation software Ver 1.1 to analyze the curves (plot each RU at the steady state vs. concentration of analyte, fit the plot, determine KD values). The dissociation equilibrium constant KD of the analyte to the immobilized Aβ was determined from the steady-state levels estimating the maximum RU Rmax and calculating the KD as the concentration of the compound that elicited one-half of the Rmax.

Series [1] is described as follows: Metabolic stability in rat liver microsomes. It counts as in vitro ADME. The conditions noted are these: % of compound remaining after 30 minutes. The procedure: (§1) The metabolic stability of exemplary peptide analogs as disclosed herein was tested in Human and Rat liver microsomes (HLM and RLM, respectively). The obtained data is presented in Table 5 below, as % of compound remaining after 30 minutes). All of the peptides were found sufficiently stable.

The next series has as its system human P-gp (PGP). Description: Membrane permeability in MDCKII/PGP cells. The following applies: dog, MDCK-MDR1; MDCKII cells transfected with human PGP; read-out: Permeability MDCKII/PGP A-B (apical-basolateral flux). It counts as in vitro ADME. The procedure: (§2) Exemplary peptide analogs as disclosed herein were tested for membrane permeability in MDCKII cells transfected with human PGP, for evaluating intestinal absorption. The data obtained in presented in Table 5 below, where A-B is the apical-basolateral flux and AI is the asymmetry index.

Series [2] in a line: Metabolic stability in human liver microsomes. Format: in vitro ADME. The conditions noted are these: % of compound remaining after 30 minutes. The procedure:
as §1

The nature of series [3]: Aqueous solubility at pH 7.4. Format: physicochemical. The conditions noted are these: aqueous medium at pH 7.4, aqueous buffer. The procedure: The aqueous solubility of exemplary dipeptide analogs as disclosed herein was tested at pH 7.4.
Another series concerns P-gp (human PGP). Description: Membrane permeability in MDCKII/PGP cells. The conditions noted are these: dog, MDCK-MDR1; MDCKII cells transfected with human PGP; read-out: Permeability MDCKII/PGP AI (asymmetry index). It counts as in vitro ADME. The procedure: as §2
The next series has as its target T2, Aβ1-42 (Homo sapiens, UniProt P05067).
T2 construct: β-amyloid polypeptides (Aβ 1-42, >98% pure); purchased Bachem (Bubendorf, Switzerland); host or cells: chemical synthesis
Description: Aβ1-42 globulomer generation / oligomer formation (Hillen protocol), gel staining and western blot. It counts as biochemical. The procedure: Aβ1-42 intermediates and globulomers were produced according to Barghorn et al. [J. Neurochem. 2005 November; 95(3):834-47]. Synthetic lyophilized β-amyloid polypeptides (Aβ 1-42, >98% pure) were purchased from Bachem (Bubendorf, Switzerland). To avoid pre-aggregation, synthetic lyophilized Aβ1-42 was pretreated with HFIP. Aβ1-42 was dissolved in 100% HFIP, sonicated for 20 seconds and incubated for 2 hours at 37° C. under shaking at 100 RPM. After evaporation in a speedVac, Aβ1-42 was re-suspended in DMSO, with or without the tested peptide, to 5 mM and diluted with 20 mM NaH2PO4, 140 mM NaCl, pH 7.4, to a final concentration of 400 μM, and 1/10 volume 2% SDS (final concentration of 0.2%). The Aβ globulomers were generated by further dilution with two volumes of H2O and incubation for 18 hours or more.
To evaluate the effect of D-Trp-Aib analogs on the transformation of the Aβ1-42 into the toxic assemblies, the tested peptides were incubated with Aβ1-42 at increasing molar ratios, and the reaction mixtures were resolved on SDS-PAGE followed by western blot analysis by a specific anti Aβ antibody (6E10) (SIGNET).

Consider 20 compounds from patent US9630989B2, “Dipeptide analogs for treating conditions associated with amyloid fibril formation” (Ramot at Tel-Aviv University Ltd., priority 2010, dated 2017).

Structures are written as SMILES. Converted amounts (≈) assume the structure as drawn. Non-standard residues stand in square brackets, D forms with d. Residues, ends and D or L forms follow the SMILES beside them. ξ: configuration not given here. *: point of attachment. dNMeW = CN[C@H](Cc1c[nH]c2ccccc12)C(=O)O; ξNMeW = CNC(Cc1c[nH]c2ccccc12)C(=O)O; ξW = NC(Cc1c[nH]c2ccccc12)C(=O)O; NMeAib = CNC(C)(C)C(=O)O; Boc = CC(C)(C)OC(=O)*; Aib = CC(C)(N)C(=O)O; OtBu = CC(C)(C)O*

T1 sequence (P05067 672-713 limits assumed): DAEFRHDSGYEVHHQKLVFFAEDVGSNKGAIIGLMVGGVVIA
T2 sequence (P05067 672-713 limits assumed): as above

As to `CC(=O)N[C@H](Cc1c[nH]c2ccccc12)C(=O)N(C)C(C)(C)C(=O)O` [Compound R] (Ac-[dW]-[NMeAib]-OH), at Aβ monomers, the IC50 was found to be 4.3 ± 1 nM.
`CNC(=O)C(C)(C)N(C)C(=O)[C@@H](Cc1c[nH]c2ccccc12)NC(C)=O` [Compound V] (Ac-[dW]-[NMeAib]-NHMe): the IC50 on Aβ monomers was 0.5 nM.
With `CC(C)(NC(=O)C(N)Cc1c[nH]c2ccccc12)C(N)=O` (stereo not drawn) (H-[ξW]-[Aib]-NH2), the “Metabolic Stability (%) RLM” value in series [1] is recorded as over 100%. Further, the Papp A→B in the series on human P-gp (PGP) turned out to be 1.6 ×10⁻⁶ cm/s. For the same compound, in series [2], the “Metabolic Stability (%) HLM” value is over 100%. In series [3], this compound had a solubility of over 355 µM.
Turning to `CC(=O)NC(Cc1c[nH]c2ccccc12)C(=O)NC(C)(C)C(=O)O` (stereo not drawn), the “Metabolic Stability (%) RLM” value in series [1] is reported as over 100%. In addition, the efflux ratio with P-gp (human PGP) worked out at 0.7. The Papp A→B in the series with human P-gp (PGP) stood at 1.5 ×10⁻⁶ cm/s. Further, the “Metabolic Stability (%) HLM” value in series [2] was 90%. This compound also registered a solubility in series [3] of 253 µM (≈ 83.8 µg/mL).
Turning to `CN(C(=O)[C@@H](Cc1c[nH]c2ccccc12)NC(=O)OC(C)(C)C)C(C)(C)C(=O)O` [Compound Q] (Boc-[dW]-[NMeAib]-OH), the IC50 on Aβ monomers worked out at 3.8 ± 1.4 nM.
Regarding `CC(=O)N[C@H](Cc1c[nH]c2ccccc12)C(=O)NC(C)(C)C(=O)O` [Compound A], the IC50 at Aβ monomers stood at 2.8 ± 0.8 nM.
Consider `CC(=O)N[C@H](Cc1c[nH]c2ccccc12)C(=O)N(C)C(C)(C)C(=O)O` [drawing 66] (Ac-[dW]-[NMeAib]-OH), for which the “Metabolic Stability (%) RLM” value in series [1] is listed as over 100%. Also, the efflux ratio in the series on P-gp (human PGP) amounted to 1. In the series with human P-gp (PGP), the Papp A→B came to 0.7 ×10⁻⁶ cm/s. Besides, the “Metabolic Stability (%) HLM” value in series [2] is 88%. In series [3], this compound had a solubility of over 286 µM.
The corresponding values for `CC(C)(NC(=O)C(Cc1c[nH]c2ccccc12)NC=O)C(=O)O` (stereo not drawn) are over 100%, 0.7, 1.3 ×10⁻⁶ cm/s, 87% and 222 µM (≈ 70.5 µg/mL).
With `CC(=O)N(C)C(Cc1c[nH]c2ccccc12)C(=O)NC(C)(C)C(=O)O` (stereo not drawn) (Ac-[ξNMeW]-[Aib]-OH), in the series with P-gp (human PGP), the efflux ratio was 0.8. Besides, in the series on human P-gp (PGP), the Papp A→B worked out at 1.3 ×10⁻⁶ cm/s. The solubility in series [3] is over 278 µM.
Consider `CC(=O)N(C)[C@H](Cc1c[nH]c2ccccc12)C(=O)NC(C)(C)C(=O)O` [Compound B] (Ac-[dNMeW]-[Aib]-OH), for which the IC50 at Aβ monomers turned out to be 56.4 ± 32.7 nM.
In the case of `CC(C)(C)OC(=O)C(C)(C)NC(=O)[C@H](N)Cc1c[nH]c2ccccc12` [Compound 1] (H-[dW]-[Aib]-OtBu), the “inhibition of Aβ1-42 globulomer formation” value on Aβ1-42 (10:1 (inhibitor:Aβ peptide) molar ratio) and at Aβ1-42 (20:1 (inhibitor:Aβ peptide) molar ratio) was “inhibit” throughout.
For the compound `CC(C)(NC(=O)C(N)Cc1c[nH]c2ccccc12)C(=O)O` (stereo not drawn) [reference compound], in series [1], the “Metabolic Stability (%) RLM” value is listed as over 100%. Besides, in the series on human P-gp (PGP), the Papp A→B came to 1.2 ×10⁻⁶ cm/s. For the same compound, in series [2], the “Metabolic Stability (%) HLM” value is over 100%. In series [3], this compound gave a solubility of over 350 µM.
Regarding `CN(C(=O)[C@@H](Cc1c[nH]c2ccccc12)NC(=O)OC(C)(C)C)C(C)(C)C(=O)O` [drawing 65] (Boc-[dW]-[NMeAib]-OH), in series [1], the “Metabolic Stability (%) RLM” value was determined as 87%. Also, in the series on P-gp (human PGP), the efflux ratio turned out to be 0.3. Also, the Papp A→B in the series on human P-gp (PGP) was 1.4 ×10⁻⁶ cm/s. Further, in series [2], the “Metabolic Stability (%) HLM” value amounted to 100%. This compound came in with a solubility in series [3] of 239 µM (≈ 96.4 µg/mL).
Turning to `CC(C)(NC(=O)[C@@H](Cc1c[nH]c2ccccc12)NC=O)C(=O)O` [Compound C], the IC50 at Aβ monomers came out at 3.9 ± 0.1 nM.
On the same count and under the same terms, as for `CC(C)(C)OC(=O)N/C(=C\c1c[nH]c2ccccc12)C(=O)NC(C)(C)C(=O)O` [Compound U], the figure is 6.2 ± 1.9 nM.
Turning to `CNC(=O)C(C)(C)NC(=O)[C@H](N)Cc1c[nH]c2ccccc12` [Compound E] (H-[dW]-[Aib]-NHMe), on Aβ monomers, the IC50 was 40.2 ± 3.4 nM.
On the same count and under the same terms, the result for `CN(C)C(=O)C(C)(C)NC(=O)[C@H](N)Cc1c[nH]c2ccccc12` [Compound F] (H-[dW]-[Aib]-NMe2) reads 4.2 nM; that for `CC(C)(C)OC(=O)N/C(=C\c1c[nH]c2ccccc12)C(=O)NC(C)(C)C(N)=O` [Compound T], 1.5 ± 0.6 nM.
On to `CC(C)(C)OC(=O)N/C(=C\c1c[nH]c2ccccc12)C(=O)NC(C)(C)C(N)=O` [drawing 64], for which the efflux ratio with P-gp (human PGP) was found to be 1.6. Besides, the Papp A→B with human P-gp (PGP) was 10.6 ×10⁻⁶ cm/s. The solubility in series [3] was over 282 µM.
Take `CC(C)(C)OC(=O)N/C(=C\c1c[nH]c2ccccc12)C(=O)NC(C)(C)C(=O)O` [drawing 63]: in series [1], the “Metabolic Stability (%) RLM” value was found to be 81%. Moreover, in the series on P-gp (human PGP), the efflux ratio is 1.2. In addition, the Papp A→B in the series on human P-gp (PGP) came out at 2.1 ×10⁻⁶ cm/s. Moreover, the “Metabolic Stability (%) HLM” value in series [2] is listed as 95%. In series [3], this compound yielded a solubility of over 280 µM.
